# Reference: ChEMBL document CHEMBL1201862, “PubChem BioAssay data set” (2004)
# Active and inactive are the calls of the source.
# Assays:
# [1] = Luminescence-based cell-based high throughput dose response assay to identify activators of the DAF-12 from the parasite S. stercoralis (ssDAF-12).; assay type: functional
# [2] = target: T1, Oxysterols receptor LXR-beta (Homo sapiens, UniProt P55055); test: LXR agonists, Gal4 luciferase reporter, dose response, counter-screen for ssDAF-12 agonist project, cell-based, luminescence, HEK293, S. stercoralis campaign (AID 720737); assay type: functional; conditions: read-out: IC50 (the source's name)
# T1 sequence (P55055 whole entry): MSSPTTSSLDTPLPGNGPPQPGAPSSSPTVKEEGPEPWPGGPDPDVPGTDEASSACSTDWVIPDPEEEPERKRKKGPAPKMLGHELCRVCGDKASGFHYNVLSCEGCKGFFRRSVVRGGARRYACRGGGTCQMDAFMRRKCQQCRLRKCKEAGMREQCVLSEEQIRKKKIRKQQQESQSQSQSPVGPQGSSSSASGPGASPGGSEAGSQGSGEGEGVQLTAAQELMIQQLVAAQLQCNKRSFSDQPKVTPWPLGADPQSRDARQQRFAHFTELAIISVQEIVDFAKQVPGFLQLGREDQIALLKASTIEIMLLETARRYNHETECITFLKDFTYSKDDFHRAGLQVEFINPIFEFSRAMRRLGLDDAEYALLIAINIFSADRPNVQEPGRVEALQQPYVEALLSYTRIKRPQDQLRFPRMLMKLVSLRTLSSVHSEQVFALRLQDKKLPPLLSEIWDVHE
# [3] = target: Paired box protein Pax-8 (Homo sapiens, UniProt Q06710); test: PAX8 transcriptional activity inhibition in RMG-I – RMG-I cells, luciferase, cherry-pick, dose response (AID 687027); assay type: functional, cell-based;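 note: luciferase reporter driven by Pax8 target thyroperoxidase promoter measured by SteadyGlo luminescence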
# [4] = OVCAR-3 cell viability loss – plate reader, dry powder samples, PAX8 inhibitor project, dose response (AID 743044); assay type: functional, cell-based
# [5] = IGROV1 cell killing – plate reader, dry powder samples, PAX8 inhibitor project, dose response (AID 743043); assay type: functional, cell-based; conditions: IGROV-1
# [6] = OVCAR8 cell viability loss – plate reader, dry powder samples, PAX8 project, dose response (AID 743197); assay type: functional, cell-based; conditions: OVCAR-8
# [7] = target: T2, Leucine aminopeptidase (Plasmodium falciparum 3D7, UniProt Q8IL11); test: P. falciparum M17LAP inhibitors, primary screen, biochemical, fluorogenic H-Leu-NHMec substrate, 1536-well (AID 1619); assay type: functional
# T2 sequence (Q8IL11 whole entry): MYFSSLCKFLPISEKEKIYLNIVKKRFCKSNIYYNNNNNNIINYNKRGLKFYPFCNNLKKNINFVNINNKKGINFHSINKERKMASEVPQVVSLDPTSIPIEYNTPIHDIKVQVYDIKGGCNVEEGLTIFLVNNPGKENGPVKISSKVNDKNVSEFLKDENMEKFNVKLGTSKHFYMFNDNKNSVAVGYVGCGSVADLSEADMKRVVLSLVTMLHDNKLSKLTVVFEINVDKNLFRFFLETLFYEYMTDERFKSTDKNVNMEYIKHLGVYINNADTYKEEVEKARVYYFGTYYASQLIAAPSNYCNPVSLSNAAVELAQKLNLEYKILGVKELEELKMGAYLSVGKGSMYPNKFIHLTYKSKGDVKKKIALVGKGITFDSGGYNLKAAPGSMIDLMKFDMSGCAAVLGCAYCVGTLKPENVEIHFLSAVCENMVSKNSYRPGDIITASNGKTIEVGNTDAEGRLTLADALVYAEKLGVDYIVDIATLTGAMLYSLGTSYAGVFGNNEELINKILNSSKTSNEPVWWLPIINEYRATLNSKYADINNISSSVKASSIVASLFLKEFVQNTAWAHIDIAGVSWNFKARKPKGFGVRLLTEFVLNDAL
# [8] = M. tuberculosis H37Rv growth inhibitors, H37Rv strain (AID 1626); assay type: functional
# [9] = system: Streptococcus sp. 'group A'; test: Streptococcus pyogenes SK(-)GAS viability under kanamycin – luminescence, BacTiterGlo, confirmation, counter-screen for streptokinase expression inhibitor project, dose response (AID 1900); assay type: functional, organism-based
# [10] = target: T3, Streptokinase A (Streptococcus pyogenes serotype M1, UniProt P10520); test: viability-normalized secreted streptokinase activity reduction – plasminogen activation absorbance, OD405, dose response (AID 1914); assay type: functional, Streptococcus pyogenes M1 GAS;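 note: secreted streptokinase activity via plasminogen activation per viability signal from cell pellet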
# T3 sequence (P10520 whole entry): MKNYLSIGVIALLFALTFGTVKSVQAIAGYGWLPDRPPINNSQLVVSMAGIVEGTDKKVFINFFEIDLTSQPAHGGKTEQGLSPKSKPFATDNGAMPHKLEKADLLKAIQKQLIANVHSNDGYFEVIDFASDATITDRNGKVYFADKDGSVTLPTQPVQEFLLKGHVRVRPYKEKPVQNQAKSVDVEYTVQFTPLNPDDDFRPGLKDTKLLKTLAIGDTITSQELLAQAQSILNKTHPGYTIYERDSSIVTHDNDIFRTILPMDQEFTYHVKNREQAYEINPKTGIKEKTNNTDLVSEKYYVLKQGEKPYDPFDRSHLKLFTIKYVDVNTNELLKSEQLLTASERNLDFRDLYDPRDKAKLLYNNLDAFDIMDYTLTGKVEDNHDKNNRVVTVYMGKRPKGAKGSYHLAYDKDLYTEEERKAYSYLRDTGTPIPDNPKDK
# [11] = system: Streptococcus; test: GAS UMAA2166 growth inhibition – luminescence, BacTiterGlo, counter-screen for streptokinase expression inhibitor project, dose response (AID 1915); assay type: functional, organism-based;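 note: potency for reduction of bacterial viability or growth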
# [12] = system: H9c2; test: cells; assay type: functional, cell-based; conditions: Rattus norvegicus, H9c2, Myocardium;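 note: confirmatory concentration-response retest of ultra-high-throughput screening hits for modulation of myocardial damage; cell death induced by hydrogen peroxide oxidative stress; compound pretreatment for 60 min then peroxide exposure for 2 h; potency is for protecting the cells against peroxide damage rather than for killing them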
# [13] = target: Disintegrin and metalloproteinase domain-containing protein 17 (Homo sapiens, UniProt P78536); test: inhibition of ADAM17 substrate cleavage – biochemical, quenched FRET substrate, counter-screen for ADAM10 exosite inhibitor project, dose response (AID 743253)
# [14] = target: T4, Adenosylmethionine-8-amino-7-oxononanoate aminotransferase (Mycobacterium tuberculosis, UniProt P9WQ81); test: Mycobacterium tuberculosis BioA enzyme inhibitor Measured in Biochemical System Using Plate Reader - 2163-02_Inhibitor_Dose_CherryPick_Activity.; assay type: functional, Mycobacterium tuberculosis UT205
# T4 sequence (P9WQ81 whole entry): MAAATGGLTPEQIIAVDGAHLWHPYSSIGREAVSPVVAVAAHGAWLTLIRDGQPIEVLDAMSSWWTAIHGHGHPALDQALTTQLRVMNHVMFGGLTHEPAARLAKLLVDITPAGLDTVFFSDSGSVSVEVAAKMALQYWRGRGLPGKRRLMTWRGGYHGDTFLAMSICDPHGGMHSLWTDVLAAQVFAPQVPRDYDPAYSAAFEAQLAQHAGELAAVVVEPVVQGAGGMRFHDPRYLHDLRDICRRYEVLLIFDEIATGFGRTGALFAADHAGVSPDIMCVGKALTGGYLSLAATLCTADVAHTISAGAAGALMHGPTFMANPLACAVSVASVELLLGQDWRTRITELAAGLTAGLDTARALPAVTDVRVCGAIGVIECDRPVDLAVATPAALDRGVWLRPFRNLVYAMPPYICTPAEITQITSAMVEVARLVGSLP
# [15] = target: T5, Mannose-6-phosphate isomerase (Homo sapiens, UniProt P34949); test: MPI inhibition at elevated mannose 6-phosphate – biochemical, fluorescence intensity, high mannose 6-phosphate, primary screen (AID 1220)
# T5 sequence (P34949 whole entry): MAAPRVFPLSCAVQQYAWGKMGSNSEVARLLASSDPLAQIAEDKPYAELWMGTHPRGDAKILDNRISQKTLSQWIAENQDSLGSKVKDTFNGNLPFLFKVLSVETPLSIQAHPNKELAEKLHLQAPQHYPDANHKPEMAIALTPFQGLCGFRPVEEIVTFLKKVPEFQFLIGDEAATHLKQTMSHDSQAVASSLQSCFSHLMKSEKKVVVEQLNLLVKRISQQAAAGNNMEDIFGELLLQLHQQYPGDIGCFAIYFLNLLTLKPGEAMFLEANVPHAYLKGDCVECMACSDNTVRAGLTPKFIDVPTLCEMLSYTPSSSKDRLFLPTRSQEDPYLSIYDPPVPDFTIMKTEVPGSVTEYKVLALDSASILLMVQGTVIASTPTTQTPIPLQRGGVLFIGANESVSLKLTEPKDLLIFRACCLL
# Chain of Disintegrin and metalloproteinase domain-containing protein 17 (P78536 whole entry, the tested form may be a part): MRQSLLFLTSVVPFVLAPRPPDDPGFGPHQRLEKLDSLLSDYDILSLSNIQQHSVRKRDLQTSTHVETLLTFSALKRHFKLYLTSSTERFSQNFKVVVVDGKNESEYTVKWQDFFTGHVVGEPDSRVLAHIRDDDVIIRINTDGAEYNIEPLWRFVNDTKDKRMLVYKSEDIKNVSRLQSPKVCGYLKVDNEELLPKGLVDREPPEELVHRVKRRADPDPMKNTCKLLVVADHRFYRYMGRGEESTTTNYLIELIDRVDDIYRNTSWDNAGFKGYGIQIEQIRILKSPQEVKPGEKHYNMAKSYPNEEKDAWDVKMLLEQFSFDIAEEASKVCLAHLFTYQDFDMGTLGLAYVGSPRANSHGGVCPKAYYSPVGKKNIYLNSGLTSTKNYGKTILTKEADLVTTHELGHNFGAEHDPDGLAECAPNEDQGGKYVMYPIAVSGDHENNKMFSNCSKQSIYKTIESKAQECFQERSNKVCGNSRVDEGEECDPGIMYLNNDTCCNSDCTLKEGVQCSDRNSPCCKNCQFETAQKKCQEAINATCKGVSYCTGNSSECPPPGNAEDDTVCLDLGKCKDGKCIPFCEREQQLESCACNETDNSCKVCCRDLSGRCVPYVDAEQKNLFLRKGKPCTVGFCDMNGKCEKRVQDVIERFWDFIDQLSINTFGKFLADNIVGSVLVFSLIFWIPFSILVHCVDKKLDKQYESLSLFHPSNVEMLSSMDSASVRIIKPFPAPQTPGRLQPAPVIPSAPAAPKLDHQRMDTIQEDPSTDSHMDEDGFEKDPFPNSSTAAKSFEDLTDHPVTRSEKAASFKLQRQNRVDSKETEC
# Chain of Paired box protein Pax-8 (Q06710 whole entry): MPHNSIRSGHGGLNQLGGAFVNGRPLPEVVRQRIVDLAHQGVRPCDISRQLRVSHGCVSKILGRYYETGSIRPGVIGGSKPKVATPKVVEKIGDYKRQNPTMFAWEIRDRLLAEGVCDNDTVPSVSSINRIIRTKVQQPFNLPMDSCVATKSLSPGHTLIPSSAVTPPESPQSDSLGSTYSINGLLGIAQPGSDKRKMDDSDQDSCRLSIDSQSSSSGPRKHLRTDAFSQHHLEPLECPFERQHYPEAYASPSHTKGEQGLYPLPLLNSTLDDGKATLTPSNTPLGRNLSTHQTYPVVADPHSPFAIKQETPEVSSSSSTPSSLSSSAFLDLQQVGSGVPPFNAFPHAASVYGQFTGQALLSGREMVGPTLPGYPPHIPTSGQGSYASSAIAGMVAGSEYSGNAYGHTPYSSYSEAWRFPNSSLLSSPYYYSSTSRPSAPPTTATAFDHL
compound,measurement,setting,value
CCOC(=O)/C(C#N)=C/c1cn(CCOc2ccccc2)c2ccccc12,IC50,[1],> 67.6 µM (inactive)
same,EC50,[2],> 67.6 µM (inactive)
OC[C@@H]1[C@H](c2ccc(-c3ccc(F)cc3)cc2)[C@@H]2CN(CCC(F)(F)F)CCCCN12,AC50,[3],34.9 µM (active)
same,AC50,[4],25.2 µM (active)
same,AC50,[5],30 µM (active)
same,AC50,[6],47.5 µM (active)
COc1ccc(NC(=O)CSc2nnc[nH]2)c([N+](=O)[O-])c1,IC50,[7],17 µM (active)
Cc1nn(-c2ccccc2)c(Cl)c1/C=N/O,IC50,[8],> 100 µM (active)
Oc1c(Cl)cc(Cl)cc1/C=N\c1cc(C(F)(F)F)ccc1N1CCc2ccccc2C1,EC50,[9],4.75 µM (active)
same,EC50,[10],47.7 µM (active)
same,EC50,[11],11.8 µM (active)
same,IC50,[1],> 67.5 µM (inactive)
same,EC50,[2],> 67.5 µM (inactive)
CCOc1ccc(NC(=O)CSc2nc(C)cc(C)n2)cc1,IC50,[7],4.3 µM (active)
O=C1OCCN1C(=O)[C@H]1[C@H](c2ccc([N+](=O)[O-])cc2)C(c2ccc(F)cc2)=NN1c1ccc(Br)cc1,IC50,[12],> 79 µM (inactive)
same,IC50,[13],> 69.5 µM (inactive)
CCOC(=O)c1c(N)sc(C(N)=O)c1C,AC50,[14],5.1 µM (active)
O=C(Nc1nccs1)c1ccc(NC(=O)C2CC=CCC2C(=O)O)cc1 (configuration not stated),IC50,[7],23.2 µM (active)
COC(=O)c1c(NC(=O)C2C3C=CC(CC3)C2C(=O)O)sc(C)c1C (configuration not stated),IC50,[7],19 µM (active)
O=C(CCNc1ccc(Cc2ccncc2)cc1)c1ccc([N+](=O)[O-])cc1,IC50,[15],15.8 µM (active)
same,IC50,[1],> 67.5 µM (inactive)
same,EC50,[2],> 67.5 µM (inactive)
